Literature values as cited in US20060216726A1, “Method for optimizing thiopurine efficacy and toxicity using mass spectrometry” (Prometheus Laboratories Inc., priority 2004, published 2006).

Details: patients with inflammatory bowel disease, azathioprine

For 6-thioguanine nucleotide [6-TGN], the “Therapeutic threshold associated with efficacy” value is given as greater than 235 pmol/8×10^8 cells.
